Results on 11 compounds are retold here after patent US20260365642A1, “ANTIPARASITIC COMPOUNDS” (Animol Discovery, Inc., priority 2023, published 2026).

Structures are written as SMILES. Some results are limits rather than exact numbers.

This experiment relates to Dirofilaria immitis L1 larvae. The experiment is described as follows: Screening against microfilaria (L1 larvae) of Dirofilaria immitis, survival/motility. Conditions: 72 h, read-out: Ranked D. immitis L1 MED Activity. The class given is in vivo. The procedure:
Example 44. Screening of Compounds Against Microfilaria of Dirofilaria immitis
To evaluate the efficacy of compounds of the disclosure against Dirofilaria immitis, L1 stage larvae were exposed to various concentrations of the compounds to determine survival or paralysis of the larvae. Results are reported as the minimum effective dose (MED), defined as the concentration required to eliminate motility.
To perform the assay, microfilaria of Dirofilaria immitis were added to the wells of a microtiter plate containing buffer and the test compounds in DMSO. Microfilaria exposed to DMSO alone served as controls. An assessment was conducted at 72 hours to determine survival of the microfilaria.
Turning to `CCS(=O)(=O)N1CCOC(CN(C)c2cc(N3CCOC4(CCCCC4)C3)nc(C(F)(F)F)n2)C1` (centres unmarked) [Compound 33, N-((4-(ethylsulfonyl)morpholin-2-yl)methyl)-N-methyl-6-(1-oxa-4-azaspiro[5.5]undecan-4-yl)-2-(trifluoromethyl)pyrimidin-4-amine], the minimal effective concentration was under 10000 µM. The figure for `CCN(CC1CN(S(C)(=O)=O)CCO1)c1cc(N2CCOC3(CCCCC3)C2)nc(C(F)(F)F)n1` (centres unmarked) [Compound 20, N-ethyl-N-((4-(methylsulfonyl)morpholin-2-yl)methyl)-6-(1-oxa-4-azaspiro[5.5]undecan-4-yl)-2-(trifluoromethyl)pyrimidin-4-amine] is under 10000 µM.

With `COC(=O)N1CCCC(CN(C)c2cc(N3CCCC4(CCCCC4)C3)nc(C(F)(F)F)n2)C1` (centres unmarked) [Compound 36, methyl 3-(((6-(2-azaspiro[5.5]undecan-2-yl)-2-(trifluoromethyl)pyrimidin-4-yl)(methyl)amino)methyl)piperidine-1-carboxylate], the minimal effective concentration is over 100000 µM.

For `CS(=O)(=O)N1CCOC(CNc2cc(N3CCCC4(CCCCC4)C3)nc(C(F)(F)F)n2)C1` (centres unmarked) [Compound 15, N-((4-(methylsulfonyl)morpholin-2-yl)methyl)-6-(2-azaspiro[5.5]undecan-2-yl)-2-(trifluoromethyl)pyrimidin-4-amine], the minimal effective concentration is under 10000 µM. Next, `CS(=O)(=O)N1CCOC(CN(Cc2ccccc2)c2cc(N3CCCC4(CCCCC4)C3)nc(C(F)(F)F)n2)C1` (centres unmarked) [Compound 37, N-benzyl-N-((4-(methylsulfonyl)morpholin-2-yl)methyl)-6-(2-azaspiro[5.5]undecan-2-yl)-2-(trifluoromethyl)pyrimidin-4-amine]: over 100000 µM; `CN(CC1CN(S(C)(=O)=O)CCS1(=O)=O)c1cc(N2CCS(=O)(=O)C3(CCCCC3)C2)nc(C(F)(F)F)n1` (centres unmarked) [Compound 29, 4-(6-(methyl((4-(methylsulfonyl)-1,1-dioxidothiomorpholin-2-yl)methyl)amino)-2-(trifluoromethyl)pyrimidin-4-yl)-1-thia-4-azaspiro[5.5]undecane 1,1-dioxide]: under 30000 µM. Next, `CN(CC1CN(S(C)(=O)=O)CCO1)c1cc(N2CCSC3(CCCCC3)C2)nc(C(F)(F)F)n1` (centres unmarked) [Compound 28, N-methyl-N-((4-(methylsulfonyl)morpholin-2-yl)methyl)-6-(1-thia-4-azaspiro[5.5]undecan-4-yl)-2-(trifluoromethyl)pyrimidin-4-amine]: under 10000 µM; `CN(CC1CN(S(C)(=O)=O)CCO1)c1cc(N2CC3CCC(C2)O3)nc(C(F)(F)F)n1` (centres unmarked) [Compound 17, 6-(8-oxa-3-azabicyclo[3.2.1]octan-3-yl)-N-methyl-N-((4-(methylsulfonyl)morpholin-2-yl)methyl)-2-(trifluoromethyl)pyrimidin-4-amine]: over 100000 µM. Next, `CN(CC1CN(S(C)(=O)=O)CCS1(=O)=O)c1cc(N2CCOC3(CCCCC3)C2)nc(C(F)(F)F)n1` (centres unmarked) [Compound 25, 2-(((6-(1-oxa-4-azaspiro[5.5]undecan-4-yl)-2-(trifluoromethyl)pyrimidin-4-yl)(methyl)amino)methyl)-4-(methylsulfonyl)thiomorpholine 1,1-dioxide]: over 100000 µM. `CN(CC1CN(S(C)(=O)=O)CCS1)c1cc(N2CCCC3(CCCCC3)C2)nc(C(F)(F)F)n1` (centres unmarked) [Compound 43, N-methyl-N-((4-(methylsulfonyl)thiomorpholin-2-yl)methyl)-6-(2-azaspiro[5.5]undecan-2-yl)-2-(trifluoromethyl)pyrimidin-4-amine]: the minimal effective concentration is over 100000 µM.

`CN(CCN1CCCS1(=O)=O)c1cc(N2CCCC3(CCCCC3)C2)nc(C(F)(F)F)n1` [Compound 11, 2-(2-((6-(2-azaspiro[5.5]undecan-2-yl)-2-(trifluoromethyl)pyrimidin-4-yl)(methyl)amino)ethyl)isothiazolidine 1,1-dioxide]: the minimal effective concentration is under 30000 µM.
